From publication PMC8484140 (Targeted Oncology, 2021)
“Also recorded” adds a separate entry of the source.

Columns and labels:
Format in all cases: in vivo, human
[1] = Safety evaluation
[2] = test system: HR+/HER2− advanced breast cancer; test: Efficacy by RECIST 1.1, Stage I/II patients; conditions: for Clinical response: CR (number of patients) / Clinical response: PD (number of patients) / Clinical response: PR (number of patients) / Clinical response: SD (number of patients): with exemestane in Stage II
[3] = Plasma pharmacokinetics of entinostat
[4] = Stage II, 3 mg/week + exemestane 25 mg/day, n=2
[5] = Stage II, 5 mg/week + exemestane 25 mg/day, n=14
[6] = female, human, plasma, po, 3 mg
[7] = female, human, plasma, po, 3 mg/week
[8] = female, human, plasma, po, 5 mg
[9] = female, human, plasma, po, 5 mg/week
[10] = female, human, plasma, po, 7 mg
[11] = female, human, plasma, po, 7 mg/week

Structure (SMILES): Nc1ccccc1NC(=O)c1ccc(CNC(=O)OCc2cccnc2)cc1 [Entinostat]
- Tolerability of entinostat in combination with exemestane ([1]; Chinese patients): well tolerated
- AKP elevation, entinostat-related AE of all grades [1, 4]: 0 No. (%)
- ALT elevation, entinostat-related AE of all grades [1, 4]: 0 No. (%)
- AST elevation, entinostat-related AE of all grades [1, 4]: 0 No. (%)
- Abdominal pain, entinostat-related AE of all grades [1, 4]: 0 No. (%)
- Anemia, entinostat-related AE of all grades [1, 4]: 0 No. (%)
- Back pain, entinostat-related AE of all grades [1, 4]: 0 No. (%)
- Chest pain, entinostat-related AE of all grades [1, 4]: 0 No. (%)
- Creatine increase, entinostat-related AE of all grades [1, 4]: 0 No. (%)
- Creatinine phosphokinase increase, entinostat-related AE of all grades [1, 4]: 0 No. (%)
- Debilitation, entinostat-related AE of all grades [1, 4]: 0 No. (%)
- Diarrhea, entinostat-related AE of all grades [1, 4]: 0 No. (%)
- Fatigue, entinostat-related AE of all grades [1, 4]: 0 No. (%)
- Flatulence, entinostat-related AE of all grades [1, 4]: 0 No. (%)
- Headache, entinostat-related AE of all grades [1, 4]: 0 No. (%)
- Hypoalbuminemia, entinostat-related AE of all grades [1, 4]: 0 No. (%)
- Hypocalcemia, entinostat-related AE of all grades [1, 4]: 0 No. (%)
- Hypokalemia, entinostat-related AE of all grades [1, 4]: 0 No. (%)
- Hypoproteinemia, entinostat-related AE of all grades [1, 4]: 0 No. (%)
- LDH increase, entinostat-related AE of all grades [1, 4]: 0 No. (%)
- Leukopenia, entinostat-related AE of all grades [1, 4]: 0 No. (%)
- Limb pain, entinostat-related AE of all grades [1, 4]: 0 No. (%)
- Nausea, entinostat-related AE of all grades [1, 4]: 0 No. (%)
- Neutropenia, entinostat-related AE of all grades [1, 4]: 2 (100) No. (%)
- Palpitation, entinostat-related AE of all grades [1, 4]: 0 No. (%)
- Serum Ca^2+ decrease, entinostat-related AE of all grades [1, 4]: 0 No. (%)
- Serum Na+ decrease, entinostat-related AE of all grades [1, 4]: 0 No. (%)
- Serum albumin decrease, entinostat-related AE of all grades [1, 4]: 0 No. (%)
- Serum phosphate decrease, entinostat-related AE of all grades [1, 4]: 0 No. (%)
- Serum urea increase, entinostat-related AE of all grades [1, 4]: 0 No. (%)
- Thrombocytopenia, entinostat-related AE of all grades [1, 4]: 0 No. (%)
- Γ-GT elevation, entinostat-related AE of all grades [1, 4]: 0 No. (%)
- α-HBDH elevation, entinostat-related AE of all grades [1, 4]: 0 No. (%)
- Grade 3 AE ([1]; Stage II, 3 mg/week group + exemestane): no grade 3 AE occurred
- CTCAE grade 3 arrhythmia requiring medical care ([1]; Stage II, 5 mg entinostat group, 1/14): 7.1%
- AKP elevation, entinostat-related AE of all grades [1, 5]: 4 (28.6) No. (%)
- ALT elevation, entinostat-related AE of all grades [1, 5]: 0 No. (%)
- AST elevation, entinostat-related AE of all grades [1, 5]: 2 (14.3) No. (%)
- Abdominal pain, entinostat-related AE of all grades [1, 5]: 0 No. (%)
- Anemia, entinostat-related AE of all grades [1, 5]: 5 (35.7) No. (%)
- Back pain, entinostat-related AE of all grades [1, 5]: 0 No. (%)
- Chest pain, entinostat-related AE of all grades [1, 5]: 0 No. (%)
- Creatine increase, entinostat-related AE of all grades [1, 5]: 4 (28.6) No. (%)
- Creatinine phosphokinase increase, entinostat-related AE of all grades [1, 5]: 6 (42.9) No. (%)
- Debilitation, entinostat-related AE of all grades [1, 5]: 0 No. (%)
- Diarrhea, entinostat-related AE of all grades [1, 5]: 3 (21.4) No. (%)
- Fatigue, entinostat-related AE of all grades [1, 5]: 0 No. (%)
- Flatulence, entinostat-related AE of all grades [1, 5]: 0 No. (%)
- Headache, entinostat-related AE of all grades [1, 5]: 0 No. (%)
- Hypoalbuminemia, entinostat-related AE of all grades [1, 5]: 3 (21.4) No. (%)
- Hypocalcemia, entinostat-related AE of all grades [1, 5]: 2 (14.3) No. (%)
- Hypokalemia, entinostat-related AE of all grades [1, 5]: 2 (14.3) No. (%)
- Hypoproteinemia, entinostat-related AE of all grades [1, 5]: 3 (21.4) No. (%)
- LDH increase, entinostat-related AE of all grades [1, 5]: 2 (14.3) No. (%)
- Leukopenia, entinostat-related AE of all grades [1, 5]: 10 (71.4) No. (%)
- Limb pain, entinostat-related AE of all grades [1, 5]: 2 (14.3) No. (%)
- Nausea, entinostat-related AE of all grades [1, 5]: 0 No. (%)
- Neutropenia, entinostat-related AE of all grades [1, 5]: 10 (71.4) No. (%)
- Palpitation, entinostat-related AE of all grades [1, 5]: 0 No. (%)
- Serum Ca^2+ decrease, entinostat-related AE of all grades [1, 5]: 2 (14.3) No. (%)
- Serum Na+ decrease, entinostat-related AE of all grades [1, 5]: 2 (14.3) No. (%)
- Serum albumin decrease, entinostat-related AE of all grades [1, 5]: 2 (14.3) No. (%)
- Serum phosphate decrease, entinostat-related AE of all grades [1, 5]: 7 (50) No. (%)
- Serum urea increase, entinostat-related AE of all grades [1, 5]: 2 (14.3) No. (%)
- Thrombocytopenia, entinostat-related AE of all grades [1, 5]: 6 (42.9) No. (%)
- Γ-GT elevation, entinostat-related AE of all grades [1, 5]: 3 (21.4) No. (%)
- α-HBDH elevation, entinostat-related AE of all grades [1, 5]: 2 (14.3) No. (%)
- Number of CTCAE grade ≥ 3 AEs ([1]; Stage II, 5 mg/week group + exemestane): 38
- Clinical response: CR (number of patients) ([2]; 3 mg (n = 2)): 0
- Clinical response: PD (number of patients) ([2]; 3 mg (n = 2)): 1
- Clinical response: PR (number of patients) ([2]; 3 mg (n = 2)): 0
- Clinical response: SD (number of patients) ([2]; 3 mg (n = 2)): 1
- Clinical response: CR (number of patients) ([2]; 5 mg (n = 9)): 0
- Clinical response: PD (number of patients) ([2]; 5 mg (n = 9)): 6
- Clinical response: PR (number of patients) ([2]; 5 mg (n = 9)): 2
- Clinical response: SD (number of patients) ([2]; 5 mg (n = 9)): 1
- PFS ([2]; 5 mg group, from first dose of entinostat, 95% CI: 78–201): 85.5 days
- Clinical response: CR (number of patients) ([2]; 7 mg→5 mg (n = 3)): 0
- Clinical response: PD (number of patients) ([2]; 7 mg→5 mg (n = 3)): 2
- Clinical response: PR (number of patients) ([2]; 7 mg→5 mg (n = 3)): 0
- Clinical response: SD (number of patients) ([2]; 7 mg→5 mg (n = 3)): 1
- Overall response rate (ORR, CR+PR) ([2]; 14 evaluated patients, 2/14): 14.3%
- Patients achieving CR ([2]; 14 evaluated patients, all cohorts): none
- Patients with stable disease ([2]; 14 evaluated patients, all three treatment groups): Three
- Patients with PD ([2]; 14 evaluated patients, three groups): Nine
- Patients with stable disease (> 12 weeks) ([2]; extended treatment stage, entinostat 3 or 5 mg/week + exemestane 25 mg/day): three
- Dose dependence of exposure (Cmax, AUC) ([3]; 3–7 mg): increased dose proportionally; also recorded: linear relationship between AUC0-168 and entinostat dose
- Tmax ([3]; Day 22, 5 mg/week oral, N=12, median (Min., Max.)): 0.50 (0.25, 8.00) h
- Tmax ([3]; female, human, plasma, oral): ~0.5 h
- half-life ([3]; female, human, plasma, oral): 38.3 to 65.3 h
- AUC(0-inf) [3, 6]: 572 ± 122 ng·h/mL
- Cmax [3, 6]: 49.2 ± 8.38 ng/mL
- half-life [3, 6]: 38.3 h
- AUC(0-inf) [3, 7]: 609 ± 44.3 ng·h/mL
- Cmax [3, 7]: 55.7 ± 38.2 ng/mL
- Tmax [3, 7]: 0.47 h
- half-life [3, 7]: 65.3 h
- AUC(0-inf) [3, 8]: 1070 ± 364 ng·h/mL
- Cmax [3, 8]: 101 ± 62.1 ng/mL
- half-life [3, 8]: 51.7 h
- AUC(0-inf) [3, 9]: 1310 ± 349 ng·h/mL
- Cmax [3, 9]: 107 ± 63.2 ng/mL
- half-life [3, 9]: 61.9 h
- AUC(0-inf) [3, 10]: 1380 ± 206 ng·h/mL
- Cmax [3, 10]: 154 ± 39.2 ng/mL
- Tmax [3, 10]: 0.55 h
- half-life [3, 10]: 48.1 h
- AUC(0-inf) [3, 11]: 1650 ± 452 ng·h/mL
- Cmax [3, 11]: 122 ± 76.1 ng/mL
- half-life [3, 11]: 56.2 h
